Measurements from ChEMBL document CHEMBL1201861, “Genomics of Drug Sensitity in Cancer screening data, Wellcome Trust Sanger Institute”.
pIC50: −log10 of the molar value. Blank lines part the entries; values can stand above or below the molecule they belong to.

Columns and labels:
Test in all cases: cells
[1] = test system: NCI-H1650; type: functional, cell-based, Homo sapiens; conditions: Homo sapiens, NCI-H1650;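 note: growth inhibition of human NCI-H1650 cells measured by a cell viability assay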
Description: SANGER: Inhibition of human NCI-H1650 cell growth in a cell viability assay.

[2] = test system: HCC1187; type: functional, cell-based, Homo sapiens; conditions: Homo sapiens, HCC1187;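 note: growth inhibition of HCC1187 cells, read out with a cell viability assay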
Description: SANGER: Inhibition of human HCC1187 cell growth in a cell viability assay.

[3] = test system: LB2518-MEL; type: functional, cell-based, Homo sapiens; conditions: Homo sapiens, LB2518-MEL;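 note: growth inhibition of human LB2518-MEL cells, measured with a cell viability assay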
Description: SANGER: Inhibition of human LB2518-MEL cell growth in a cell viability assay.

[4] = test system: NB10; type: functional, cell-based, Homo sapiens; conditions: Homo sapiens, NB10;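 note: growth inhibition of NB10 cells, read out by a cell viability assay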
Description: SANGER: Inhibition of human NB10 cell growth in a cell viability assay.

[5] = test system: GI-1; type: functional, cell-based, Homo sapiens; conditions: Homo sapiens, GI-1;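 note: growth inhibition of human GI-1 cells, measured with a cell viability readout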
Description: SANGER: Inhibition of human GI-1 cell growth in a cell viability assay.

[6] = test system: LB831-BLC; type: functional, cell-based, Homo sapiens; conditions: Homo sapiens, LB831-BLC;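 note: growth inhibition of LB831-BLC cells, read out with a cell viability assay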
Description: SANGER: Inhibition of human LB831-BLC cell growth in a cell viability assay.

[7] = test system: KNS-42; type: functional, cell-based, Homo sapiens; conditions: Homo sapiens, KNS-42;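 note: growth inhibition of KNS-42 cells, read out with a cell viability assay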
Description: SANGER: Inhibition of human KNS-42 cell growth in a cell viability assay.

[8] = test system: HuTu80; type: functional, cell-based, Homo sapiens, HUTU-80; conditions: Homo sapiens, HuTu80;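 note: growth inhibition of HuTu80 human cells, determined with a cell viability readout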
Description: SANGER: Inhibition of human HUTU-80 cell growth in a cell viability assay.

[9] = test system: OMC-1; type: functional, cell-based, Homo sapiens; conditions: Homo sapiens, OMC-1;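 note: growth inhibition of the OMC-1 cell line, measured by a cell viability assay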
Description: SANGER: Inhibition of human OMC-1 cell growth in a cell viability assay.

[10] = test system: NEC8; type: functional, cell-based, Homo sapiens; conditions: Homo sapiens, NEC8;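 note: growth inhibition of human NEC8 cells, read out by a cell viability assay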
Description: SANGER: Inhibition of human NEC8 cell growth in a cell viability assay.

[11] = test system: BB30-HNC; type: functional, cell-based, Homo sapiens; conditions: Homo sapiens, BB30-HNC;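 note: growth inhibition of the cultured cell line, read out by a cell viability assay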
Description: SANGER: Inhibition of human BB30-HNC cell growth in a cell viability assay.

[12] = test system: KALS-1; type: functional, cell-based, Homo sapiens; conditions: Homo sapiens, KALS-1;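 note: growth inhibition of KALS-1 cells, determined with a cell viability assay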
Description: SANGER: Inhibition of human KALS-1 cell growth in a cell viability assay.

[13] = test system: DJM-1; type: functional, cell-based, Homo sapiens; conditions: Homo sapiens, DJM-1;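 note: growth inhibition of human DJM-1 cells, read out by a cell viability assay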
Description: SANGER: Inhibition of human DJM-1 cell growth in a cell viability assay.

[14] = test system: TE-11; type: functional, cell-based, Homo sapiens; conditions: Homo sapiens, TE-11;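 note: growth inhibition of human TE-11 cells, read out by a cell viability assay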
Description: SANGER: Inhibition of human TE-11 cell growth in a cell viability assay.

[15] = test system: K5; type: functional, cell-based, Homo sapiens; conditions: Homo sapiens, K5
Description: SANGER: Inhibition of human K5 cell growth in a cell viability assay.

[16] = test system: SCH; type: functional, cell-based, Homo sapiens; conditions: Homo sapiens, SCH;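 note: growth inhibition of human SCH cells, read out in a cell viability assay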
Description: SANGER: Inhibition of human SCH cell growth in a cell viability assay.

[17] = test system: COLO-824; type: functional, cell-based, Homo sapiens; conditions: Homo sapiens, COLO-824
Description: SANGER: Inhibition of human COLO-824 cell growth in a cell viability assay.

[18] = test system: LS-1034; type: functional, cell-based, Homo sapiens; conditions: Homo sapiens, LS-1034
Description: SANGER: Inhibition of human LS-1034 cell growth in a cell viability assay.

[19] = test system: SJSA-1; type: functional, cell-based, Homo sapiens; conditions: Homo sapiens, SJSA-1;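 note: growth inhibition of human SJSA-1 cells, read out through a cell viability measurement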
Description: SANGER: Inhibition of human SJSA-1 cell growth in a cell viability assay.

[20] = test system: NCI-H226; type: functional, cell-based, Homo sapiens; conditions: Homo sapiens, NCI-H226;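 note: cell viability read-out used to gauge growth inhibition of the cells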
Description: SANGER: Inhibition of human NCI-H226 cell growth in a cell viability assay.

[21] = test system: LB771-HNC; type: functional, cell-based, Homo sapiens; conditions: Homo sapiens, LB771-HNC;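 note: growth inhibition of LB771-HNC human cells, read out with a cell viability assay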
Description: SANGER: Inhibition of human LB771-HNC cell growth in a cell viability assay.

[22] = test system: ES5; type: functional, cell-based, Homo sapiens; conditions: Homo sapiens, ES5;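 note: growth inhibition of human ES5 cells, read out by a cell viability assay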
Description: SANGER: Inhibition of human ES5 cell growth in a cell viability assay.

[23] = test system: NCI-H1648; type: functional, cell-based, Homo sapiens; conditions: Homo sapiens, NCI-H1648;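 note: cell viability assay measuring inhibition of NCI-H1648 cell growth, from the Sanger screening data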
Description: SANGER: Inhibition of human NCI-H1648 cell growth in a cell viability assay.

[24] = test system: AM-38; type: functional, cell-based, Homo sapiens; conditions: Homo sapiens, AM-38;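 note: growth inhibition of AM-38 cells of human origin, read out by a cell viability assay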
Description: SANGER: Inhibition of human AM-38 cell growth in a cell viability assay.

[25] = test system: OVCAR-4; type: functional, cell-based, Homo sapiens; conditions: Homo sapiens, OVCAR-4;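 note: growth inhibition of human OVCAR-4 cells, measured with a cell viability assay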
Description: SANGER: Inhibition of human OVCAR-4 cell growth in a cell viability assay.

[26] = test system: D-502MG; type: functional, cell-based, Homo sapiens; conditions: Homo sapiens, D-502MG
Description: SANGER: Inhibition of human D-502MG cell growth in a cell viability assay.

[27] = test system: MSTO-211H; type: functional, cell-based, Homo sapiens; conditions: Homo sapiens, MSTO-211H
Description: SANGER: Inhibition of human MSTO-211H cell growth in a cell viability assay.

[28] = test system: LOX IMVI; type: functional, cell-based, Homo sapiens; conditions: Homo sapiens, LOX IMVI
Description: SANGER: Inhibition of human LOXIMVI cell growth in a cell viability assay.

[29] = test system: DMS-114; type: functional, cell-based, Homo sapiens; conditions: Homo sapiens, DMS-114
[30] = test system: TGBC24TKB; type: functional, cell-based, Homo sapiens; conditions: Homo sapiens, TGBC24TKB;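 note: growth inhibition of human TGBC24TKB cells, read out with a cell viability assay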
Description: SANGER: Inhibition of human TGBC24TKB cell growth in a cell viability assay.

[31] = test system: KARPAS-299; type: functional, cell-based, Homo sapiens; conditions: Homo sapiens, KARPAS-299
Description: SANGER: Inhibition of human KARPAS-299 cell growth in a cell viability assay.

[32] = test system: LU-139; type: functional, cell-based, Homo sapiens; conditions: Homo sapiens, LU-139
Description: SANGER: Inhibition of human LU-139 cell growth in a cell viability assay.

[33] = test system: NCI-H82; type: functional, cell-based, Homo sapiens; conditions: Homo sapiens, NCI-H82;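 note: growth inhibition of NCI-H82 cells, measured with a cell viability readout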
Description: SANGER: Inhibition of human NCI-H82 cell growth in a cell viability assay.

[34] = test system: ALL-PO; type: functional, cell-based, Homo sapiens; conditions: Homo sapiens, ALL-PO;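 note: growth inhibition of ALL-PO cells, read out by a cell viability assay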
Description: SANGER: Inhibition of human ALL-PO cell growth in a cell viability assay.

[35] = test system: ATN-1; type: functional, cell-based, Homo sapiens; conditions: Homo sapiens, ATN-1;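 note: growth inhibition of human ATN-1 cells, read out with a cell viability assay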
Description: SANGER: Inhibition of human ATN-1 cell growth in a cell viability assay.

[36] = test system: MOLT-16; type: functional, cell-based, Homo sapiens; conditions: Homo sapiens, MOLT-16;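 note: growth inhibition of human MOLT-16 cells, read out with a cell viability assay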
Description: SANGER: Inhibition of human MOLT-16 cell growth in a cell viability assay.

[37] = test system: HH; type: functional, cell-based, Homo sapiens; conditions: Homo sapiens, HH
Description: SANGER: Inhibition of human HH cell growth in a cell viability assay.

[38] = test system: MHH-NB-11; type: functional, cell-based, Homo sapiens; conditions: Homo sapiens, MHH-NB-11;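 note: growth inhibition of human MHH-NB-11 cells, read out by a cell viability assay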
Description: SANGER: Inhibition of human MHH-NB-11 cell growth in a cell viability assay.

[39] = test system: SNB-75; type: functional, cell-based, Homo sapiens; conditions: Homo sapiens, SNB-75;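 note: cell viability assay measuring growth inhibition of human SNB-75 cells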
Description: SANGER: Inhibition of human SNB75 cell growth in a cell viability assay.

[40] = test system: KM-H2; type: functional, cell-based, Homo sapiens; conditions: Homo sapiens, KM-H2;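 note: growth inhibition of KM-H2 cells, read out by a cell viability assay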
Description: SANGER: Inhibition of human KM-H2 cell growth in a cell viability assay.

[41] = test system: HC-1; type: functional, cell-based, Homo sapiens; conditions: Homo sapiens, HC-1;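 note: growth inhibition of HC-1 cells measured by a cell viability assay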
Description: SANGER: Inhibition of human HC-1 cell growth in a cell viability assay.

[42] = test system: KE-37; type: functional, cell-based, Homo sapiens; conditions: Homo sapiens, KE-37;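 note: growth inhibition of KE-37 cells, read out with a cell viability assay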
Description: SANGER: Inhibition of human KE-37 cell growth in a cell viability assay.

[43] = test system: SNU-5; type: functional, cell-based, Homo sapiens; conditions: Homo sapiens, SNU-5;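 note: cell viability readout used to measure growth inhibition in human NCI-SNU-5 cells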
Description: SANGER: Inhibition of human NCI-SNU-5 cell growth in a cell viability assay.

[44] = test system: COR-L88; type: functional, cell-based, Homo sapiens; conditions: Homo sapiens, COR-L88;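 note: growth inhibition of COR-L88 cells, read out with a cell viability assay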
Description: SANGER: Inhibition of human COR-L88 cell growth in a cell viability assay.

[45] = test system: RS4-11; type: functional, cell-based, Homo sapiens; conditions: Homo sapiens, RS4-11;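 note: growth inhibition of RS4-11 cells, read out by a cell viability assay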
Description: SANGER: Inhibition of human RS4-11 cell growth in a cell viability assay.

[46] = test system: Lu-65; type: functional, cell-based, Homo sapiens; conditions: Homo sapiens, Lu-65;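 note: growth inhibition of Lu-65 cancer cells, read out by a cell viability assay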
Description: SANGER: Inhibition of human LU-65 cell growth in a cell viability assay.

[47] = test system: EW-18; type: functional, cell-based, Homo sapiens; conditions: Homo sapiens, EW-18;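 note: growth inhibition of EW-18 cells, read out by a cell viability assay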
Description: SANGER: Inhibition of human EW-18 cell growth in a cell viability assay.

[48] = test system: Ramos-2G6-4C10; type: functional, cell-based, Homo sapiens; conditions: Homo sapiens, Ramos-2G6-4C10;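 note: growth inhibition of the cell line, measured by a cell viability read-out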
Description: SANGER: Inhibition of human Ramos-2G6-4C10 cell growth in a cell viability assay.

pIC50 [1]: 5.31
pIC50 [2]: 6.37
pIC50 [3]: 6.75
pIC50 [4]: 6.67
pIC50 [5]: 6.89
pIC50 [6]: 6.13
pIC50 [7]: 5.59
pIC50 [8]: 7.06
pIC50 [9]: 6.25
pIC50 [10]: 6.84
pIC50 [11]: 6.79
pIC50 [12]: 6.60
pIC50 [13]: 6.28
pIC50 [14]: 6.82
pIC50 [15]: 5.75
pIC50 [16]: 6.43
pIC50 [17]: 6.16
pIC50 [18]: 5.87
pIC50 [19]: 6.49
pIC50 [20]: 5.61
pIC50 [21]: 6.78
pIC50 [22]: 6.05
pIC50 [23]: 5.95
pIC50 [24]: 6.08
pIC50 [25]: 6.22
pIC50 [26]: 5.31
pIC50 [27]: 6.10
pIC50 [28]: 6.57
pIC50 [29]: 7.04
pIC50 [30]: 6.64
SMILES: CC(C)c1ccccc1Cc1cc(C(=O)Nc2ccc(S(=O)(=O)c3ccccc3C(C)(C)C)cc2)c(O)c(O)c1O

SMILES: C#Cc1cccc(Nc2ncnc3cc(OCCOC)c(OCCOC)cc23)c1 [ERLOTINIB]
pIC50 [1]: < 5.70
pIC50 [2]: < 5.70
pIC50 [3]: < 5.70
pIC50 [4]: < 5.70
pIC50 [5]: < 5.70
pIC50 [6]: < 5.70
pIC50 [7]: < 5.70
pIC50 [31]: < 5.70
pIC50 [8]: < 5.70
pIC50 [32]: < 5.70
pIC50 [33]: < 5.70
pIC50 [34]: < 5.70
pIC50 [9]: < 5.70
pIC50 [35]: < 5.70
pIC50 [36]: 5.71
pIC50 [37]: < 5.70
pIC50 [38]: < 5.70
pIC50 [10]: < 5.70
pIC50 [11]: 6.83
pIC50 [39]: < 5.70
pIC50 [12]: < 5.70
pIC50 [40]: < 5.70
pIC50 [13]: < 5.70
pIC50 [15]: < 5.70
pIC50 [16]: < 5.70
pIC50 [17]: < 5.70
pIC50 [41]: < 5.70
pIC50 [18]: < 5.70
pIC50 [19]: < 5.70
pIC50 [20]: < 5.70
pIC50 [21]: < 5.70
pIC50 [22]: < 5.70
pIC50 [42]: < 5.70
pIC50 [43]: < 5.70
pIC50 [23]: 7.40
pIC50 [24]: < 5.70
pIC50 [44]: < 5.70
pIC50 [25]: < 5.70
pIC50 [45]: < 5.70
pIC50 [26]: < 5.70
pIC50 [28]: < 5.70
pIC50 [29]: < 5.70
pIC50 [46]: < 5.70
pIC50 [47]: < 5.70
pIC50 [48]: < 5.70

SMILES: Nc1cccc2c1CN(C1CCC(=O)NC1=O)C2=O (stereo not given) [LENALIDOMIDE]
pIC50 [1]: < 5.30
pIC50 [2]: < 5.30
pIC50 [3]: < 5.30
pIC50 [4]: < 5.30
pIC50 [5]: < 5.30
pIC50 [6]: < 5.30
pIC50 [7]: < 5.30
pIC50 [31]: < 5.30
pIC50 [8]: < 5.30
pIC50 [32]: < 5.30
pIC50 [33]: < 5.30
pIC50 [34]: < 5.30
pIC50 [9]: < 5.30
pIC50 [35]: < 5.30
pIC50 [36]: < 5.30
pIC50 [37]: < 5.30
pIC50 [38]: < 5.30
pIC50 [10]: < 5.30
pIC50 [11]: < 5.30
pIC50 [39]: < 5.30
pIC50 [12]: < 5.30
pIC50 [40]: < 5.30
pIC50 [13]: < 5.30
pIC50 [14]: < 5.30
pIC50 [15]: < 5.30
pIC50 [16]: < 5.30
pIC50 [17]: < 5.30
pIC50 [41]: < 5.30
pIC50 [18]: < 5.30
pIC50 [19]: < 5.30
pIC50 [20]: < 5.30
pIC50 [21]: 5.67
pIC50 [22]: < 5.30
pIC50 [42]: < 5.30
pIC50 [43]: < 5.30
pIC50 [23]: < 5.30
pIC50 [24]: < 5.30
pIC50 [44]: < 5.30
pIC50 [25]: < 5.30
pIC50 [45]: < 5.30
pIC50 [26]: < 5.30
pIC50 [27]: < 5.30
pIC50 [28]: < 5.30
pIC50 [29]: < 5.30
pIC50 [30]: < 5.30
pIC50 [46]: < 5.30
pIC50 [47]: < 5.30
pIC50 [48]: < 5.30

SMILES: CN(C)C(=N)NC(=N)N [METFORMIN]
pIC50 [2]: 1.85
pIC50 [3]: < 1.70
pIC50 [5]: < 1.70
pIC50 [6]: < 1.70
pIC50 [31]: < 1.70
pIC50 [8]: < 1.70
pIC50 [32]: < 1.70
pIC50 [34]: 2.54
pIC50 [9]: 1.78
pIC50 [35]: 2.06
pIC50 [36]: < 1.70
pIC50 [37]: 2.02
pIC50 [10]: 1.80
pIC50 [11]: 1.96
pIC50 [39]: < 1.70
pIC50 [40]: 1.73
pIC50 [13]: 1.99
pIC50 [14]: < 1.70
pIC50 [15]: < 1.70
pIC50 [16]: < 1.70
pIC50 [17]: < 1.70
pIC50 [41]: 2.38
pIC50 [18]: < 1.70
pIC50 [19]: < 1.70
pIC50 [21]: < 1.70
pIC50 [22]: 1.83
pIC50 [42]: 2.13
pIC50 [43]: 2.43
pIC50 [23]: < 1.70
pIC50 [24]: < 1.70
pIC50 [44]: 2.20
pIC50 [25]: 2.35
pIC50 [45]: < 1.70
pIC50 [26]: < 1.70
pIC50 [27]: < 1.70
pIC50 [28]: 1.97
pIC50 [29]: < 1.70
pIC50 [46]: 3.29
pIC50 [47]: 2.23
pIC50 [48]: < 1.70

SMILES: CS(=O)(=O)c1ccc(C(=O)Nc2ccc(Cl)c(-c3ccccn3)c2)c(Cl)c1 [VISMODEGIB]
pIC50 [1]: < 5.00
pIC50 [2]: < 5.00
pIC50 [3]: < 5.00
pIC50 [4]: < 5.00
pIC50 [5]: < 5.00
pIC50 [6]: < 5.00
pIC50 [7]: < 5.00
pIC50 [31]: < 5.00
pIC50 [8]: < 5.00
pIC50 [32]: < 5.00
pIC50 [33]: < 5.00
pIC50 [34]: < 5.00
pIC50 [9]: < 5.00
pIC50 [35]: < 5.00
pIC50 [36]: < 5.00
pIC50 [37]: < 5.00
pIC50 [38]: < 5.00
pIC50 [10]: < 5.00
pIC50 [11]: < 5.00
pIC50 [39]: < 5.00
pIC50 [12]: < 5.00
pIC50 [40]: < 5.00
pIC50 [13]: < 5.00
pIC50 [14]: < 5.00
pIC50 [15]: < 5.00
pIC50 [16]: < 5.00
pIC50 [17]: < 5.00
pIC50 [41]: < 5.00
pIC50 [18]: < 5.00
pIC50 [19]: < 5.00
pIC50 [20]: < 5.00
pIC50 [21]: < 5.00
pIC50 [22]: < 5.00
pIC50 [42]: < 5.00
pIC50 [43]: < 5.00
pIC50 [23]: < 5.00
pIC50 [24]: < 5.00
pIC50 [25]: < 5.00
pIC50 [45]: < 5.00
pIC50 [26]: < 5.00
pIC50 [27]: < 5.00
pIC50 [28]: < 5.00
pIC50 [29]: < 5.00
pIC50 [30]: < 5.00
pIC50 [46]: < 5.00
pIC50 [47]: < 5.00
pIC50 [48]: < 5.00
